Format in all cases: biochemical
One assay concerns the target T1, Lck (Homo sapiens, UniProt P06239).
T1 construct: Kinases are expressed as either kinase domains or full length constructs; made in house
The experiment in a line: Kinase inhibition assay (33P transfer), Lck. The conditions noted are these: Table 3; read-out: Lck-1. The procedure, abridged:
(§1)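 Steps: express kinase as GST or polyHistidine fusion in E. coli or High Five cells; optionally co-express or mix with regulatory polypeptides; incubate with 33P-ATP and plate-attached poly(Glu,Tyr) 4:1 or poly(Arg,Ser) 3:1; wash with 0.5% phosphoric acid; count by liquid scintillation.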

The target of another assay is T2, Zap-70 (Homo sapiens, UniProt P43403).
T2 construct: Kinases are expressed as either kinase domains or full length constructs; made in house
T2 sequence (P43403 1-619): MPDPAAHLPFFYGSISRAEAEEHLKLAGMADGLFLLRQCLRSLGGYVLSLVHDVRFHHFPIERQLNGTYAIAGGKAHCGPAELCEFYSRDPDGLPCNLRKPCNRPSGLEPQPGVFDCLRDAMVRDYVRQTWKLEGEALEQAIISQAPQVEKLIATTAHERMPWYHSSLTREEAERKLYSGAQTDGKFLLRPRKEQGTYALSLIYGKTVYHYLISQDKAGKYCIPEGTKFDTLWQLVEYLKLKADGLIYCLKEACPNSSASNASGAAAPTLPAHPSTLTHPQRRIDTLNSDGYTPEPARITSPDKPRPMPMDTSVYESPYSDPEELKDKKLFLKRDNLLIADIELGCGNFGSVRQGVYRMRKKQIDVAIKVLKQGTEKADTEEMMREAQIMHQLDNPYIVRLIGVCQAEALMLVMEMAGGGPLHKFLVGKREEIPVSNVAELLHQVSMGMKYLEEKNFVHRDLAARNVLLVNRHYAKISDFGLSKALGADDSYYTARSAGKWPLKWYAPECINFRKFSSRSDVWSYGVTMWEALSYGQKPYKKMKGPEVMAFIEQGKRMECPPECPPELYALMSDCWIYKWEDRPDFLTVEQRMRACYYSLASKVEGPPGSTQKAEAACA
The experiment in a line: Kinase inhibition assay (33P transfer), Zap-70. The conditions noted are these: Table 3; read-out: Zap-1. In outline:
as §1

The next assay addresses T3, Itk (Homo sapiens, UniProt Q08881).
T3 construct: Kinases are expressed as either kinase domains or full length constructs; made in house
T3 sequence (Q08881 1-620): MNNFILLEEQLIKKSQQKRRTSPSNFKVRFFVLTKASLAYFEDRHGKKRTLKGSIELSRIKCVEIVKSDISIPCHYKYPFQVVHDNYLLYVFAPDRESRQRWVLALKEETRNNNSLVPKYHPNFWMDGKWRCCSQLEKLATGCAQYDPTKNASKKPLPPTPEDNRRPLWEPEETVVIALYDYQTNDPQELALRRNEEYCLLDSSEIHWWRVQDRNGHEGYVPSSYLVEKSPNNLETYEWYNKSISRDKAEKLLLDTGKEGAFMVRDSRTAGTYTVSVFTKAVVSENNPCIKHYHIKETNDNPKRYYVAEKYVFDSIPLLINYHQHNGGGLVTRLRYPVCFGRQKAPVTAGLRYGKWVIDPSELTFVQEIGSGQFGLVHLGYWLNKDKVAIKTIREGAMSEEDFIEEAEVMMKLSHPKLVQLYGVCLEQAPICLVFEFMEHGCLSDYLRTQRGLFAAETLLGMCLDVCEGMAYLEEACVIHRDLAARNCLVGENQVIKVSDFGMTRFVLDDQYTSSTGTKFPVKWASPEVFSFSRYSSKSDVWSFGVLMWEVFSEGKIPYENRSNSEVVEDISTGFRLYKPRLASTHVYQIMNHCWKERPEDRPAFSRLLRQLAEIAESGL
The experiment in a line: Kinase inhibition assay (33P transfer), Itk. The conditions noted are these: Table 3; read-out: Itk-1. In outline: (§2)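 IC50: inhibitor concentration lowering 33P incorporation into immobilised substrate by 50%. Label transferred from ATP to poly(Glu,Tyr) 4:1 or poly(Arg,Ser) 3:1 is measured after a 0.5% phosphoric acid wash by liquid scintillation.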

A further assay deals with T4, EGFR (Homo sapiens, UniProt P00533).
T4 construct: Kinases are expressed as either kinase domains or full length constructs; made in house
T4 sequence (P00533 25-1210, species assumed): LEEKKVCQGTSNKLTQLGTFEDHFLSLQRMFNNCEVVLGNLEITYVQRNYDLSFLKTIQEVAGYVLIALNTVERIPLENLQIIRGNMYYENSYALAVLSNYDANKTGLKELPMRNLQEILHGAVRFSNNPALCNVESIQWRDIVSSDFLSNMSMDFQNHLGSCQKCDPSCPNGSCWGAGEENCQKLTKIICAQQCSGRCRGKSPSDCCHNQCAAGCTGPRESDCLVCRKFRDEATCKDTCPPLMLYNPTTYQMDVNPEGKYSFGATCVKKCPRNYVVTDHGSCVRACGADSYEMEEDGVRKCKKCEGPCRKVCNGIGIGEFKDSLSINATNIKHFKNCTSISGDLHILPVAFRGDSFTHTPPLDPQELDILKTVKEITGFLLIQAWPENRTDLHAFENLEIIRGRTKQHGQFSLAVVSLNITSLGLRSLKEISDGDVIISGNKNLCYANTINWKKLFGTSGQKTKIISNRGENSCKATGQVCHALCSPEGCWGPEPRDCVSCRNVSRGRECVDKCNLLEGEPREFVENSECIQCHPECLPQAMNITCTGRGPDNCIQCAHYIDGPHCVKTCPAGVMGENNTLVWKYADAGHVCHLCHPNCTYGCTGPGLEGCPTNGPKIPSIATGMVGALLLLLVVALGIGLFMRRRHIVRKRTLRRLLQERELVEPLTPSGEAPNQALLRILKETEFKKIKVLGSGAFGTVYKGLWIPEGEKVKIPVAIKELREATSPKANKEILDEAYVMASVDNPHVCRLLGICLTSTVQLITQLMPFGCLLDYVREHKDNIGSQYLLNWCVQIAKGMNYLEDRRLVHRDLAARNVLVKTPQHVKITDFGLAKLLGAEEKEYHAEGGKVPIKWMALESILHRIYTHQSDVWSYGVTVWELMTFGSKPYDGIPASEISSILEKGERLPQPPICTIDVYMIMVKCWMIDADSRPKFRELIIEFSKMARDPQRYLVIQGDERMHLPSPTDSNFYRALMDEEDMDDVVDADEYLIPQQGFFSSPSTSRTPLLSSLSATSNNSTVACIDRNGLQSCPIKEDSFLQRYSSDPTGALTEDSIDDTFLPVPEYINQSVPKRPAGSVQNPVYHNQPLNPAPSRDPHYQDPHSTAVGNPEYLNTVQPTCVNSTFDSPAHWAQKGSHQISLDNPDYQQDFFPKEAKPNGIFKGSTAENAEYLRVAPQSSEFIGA
As to the kind of experiment: Kinase inhibition assay (33P transfer), EGFR. The conditions noted are these: Table 2, kinase inhibition class; read-out: EGFR-1. In outline: as §2

A further assay addresses T5, Kdr (Homo sapiens, UniProt P35968).
T5 construct: Kinases are expressed as either kinase domains or full length constructs; made in house
As to the kind of experiment: Kinase inhibition assay (33P transfer), Kdr. The conditions noted are these: Table 3; read-out: KDR-1. In outline:
as §1

The next assay has as its target T6, Tek (Homo sapiens, UniProt Q02763).
T6 construct: Kinases are expressed as either kinase domains or full length constructs; made in house
As to the kind of experiment: Kinase inhibition assay (33P transfer), Tek. The conditions noted are these: read-out: Tek-1. In outline:
as §2

A further assay concerns the target T7, c-Met (Homo sapiens, UniProt P08581).
T7 construct: Kinases are expressed as either kinase domains or full length constructs; made in house
The experiment in a line: Kinase inhibition assay (33P transfer), c-Met. The conditions noted are these: Table 2, kinase inhibition class; read-out: Met-1. The procedure, abridged: as §2

Another assay deals with T8, AKT (Homo sapiens, UniProt Q9Y243).
T8 construct: Kinases are expressed as either kinase domains or full length constructs; made in house
T8 sequence (Q9Y243 whole entry, the tested form may be a part): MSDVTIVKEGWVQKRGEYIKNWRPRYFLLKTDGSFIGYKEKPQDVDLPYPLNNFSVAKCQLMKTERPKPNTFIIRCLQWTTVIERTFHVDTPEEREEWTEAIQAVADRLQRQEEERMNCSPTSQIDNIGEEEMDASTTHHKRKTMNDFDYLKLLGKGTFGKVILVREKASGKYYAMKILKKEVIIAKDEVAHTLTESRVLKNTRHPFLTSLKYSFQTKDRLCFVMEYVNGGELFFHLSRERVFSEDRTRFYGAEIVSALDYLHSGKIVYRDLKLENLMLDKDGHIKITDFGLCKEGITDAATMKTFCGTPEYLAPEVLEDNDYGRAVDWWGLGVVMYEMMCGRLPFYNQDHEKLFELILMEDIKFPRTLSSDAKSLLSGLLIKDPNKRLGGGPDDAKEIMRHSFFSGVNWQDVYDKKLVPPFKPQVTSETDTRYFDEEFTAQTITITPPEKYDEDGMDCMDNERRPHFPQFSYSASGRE
As to the kind of experiment: Kinase inhibition assay (33P transfer), AKT. The conditions noted are these: Table 2, kinase inhibition class; read-out: AKT3-1. In outline: as §1

The target in the next assay is T9, IGFR-1 (Homo sapiens, UniProt P08069).
T9 construct: Kinases are expressed as either kinase domains or full length constructs; made in house
T9 sequence (P08069 31-1367): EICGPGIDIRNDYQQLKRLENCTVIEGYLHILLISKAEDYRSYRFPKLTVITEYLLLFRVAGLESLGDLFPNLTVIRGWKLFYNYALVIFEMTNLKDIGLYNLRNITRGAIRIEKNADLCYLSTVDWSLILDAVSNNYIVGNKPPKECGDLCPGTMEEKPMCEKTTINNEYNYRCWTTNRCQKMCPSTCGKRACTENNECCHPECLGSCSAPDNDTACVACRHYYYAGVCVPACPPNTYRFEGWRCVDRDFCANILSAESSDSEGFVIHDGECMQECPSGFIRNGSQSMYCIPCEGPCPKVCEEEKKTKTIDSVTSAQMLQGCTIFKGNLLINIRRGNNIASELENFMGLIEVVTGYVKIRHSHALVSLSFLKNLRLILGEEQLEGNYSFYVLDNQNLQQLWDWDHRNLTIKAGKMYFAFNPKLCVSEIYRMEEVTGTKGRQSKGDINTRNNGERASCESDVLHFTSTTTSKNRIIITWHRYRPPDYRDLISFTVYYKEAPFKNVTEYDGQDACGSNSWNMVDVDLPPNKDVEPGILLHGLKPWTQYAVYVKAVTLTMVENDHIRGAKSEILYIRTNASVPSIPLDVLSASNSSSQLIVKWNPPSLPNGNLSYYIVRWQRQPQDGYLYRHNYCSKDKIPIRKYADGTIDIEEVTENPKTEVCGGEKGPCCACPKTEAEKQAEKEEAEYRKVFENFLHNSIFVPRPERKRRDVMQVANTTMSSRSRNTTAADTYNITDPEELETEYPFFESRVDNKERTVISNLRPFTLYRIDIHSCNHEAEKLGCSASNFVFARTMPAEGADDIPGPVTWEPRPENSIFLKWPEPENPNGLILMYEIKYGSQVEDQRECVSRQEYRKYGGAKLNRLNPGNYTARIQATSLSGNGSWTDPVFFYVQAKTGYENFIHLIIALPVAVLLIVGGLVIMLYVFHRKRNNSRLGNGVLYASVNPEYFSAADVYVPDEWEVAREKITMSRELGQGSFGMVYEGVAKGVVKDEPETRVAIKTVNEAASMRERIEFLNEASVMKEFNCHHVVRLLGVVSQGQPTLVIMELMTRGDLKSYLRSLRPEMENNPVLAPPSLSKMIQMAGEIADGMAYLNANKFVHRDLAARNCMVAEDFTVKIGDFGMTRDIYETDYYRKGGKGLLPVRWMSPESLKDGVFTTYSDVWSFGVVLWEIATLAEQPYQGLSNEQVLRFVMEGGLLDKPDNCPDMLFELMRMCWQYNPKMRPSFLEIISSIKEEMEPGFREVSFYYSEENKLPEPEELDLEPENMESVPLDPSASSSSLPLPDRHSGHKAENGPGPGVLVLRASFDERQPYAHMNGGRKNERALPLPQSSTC
The experiment in a line: Kinase inhibition assay (33P transfer), IGFR-1. The conditions noted are these: Table 2, kinase inhibition class.

Another assay concerns the target T10, EPHB4 (Homo sapiens, UniProt P54760).
T10 construct: Kinases are expressed as either kinase domains or full length constructs; made in house
T10 sequence (P54760 16-987): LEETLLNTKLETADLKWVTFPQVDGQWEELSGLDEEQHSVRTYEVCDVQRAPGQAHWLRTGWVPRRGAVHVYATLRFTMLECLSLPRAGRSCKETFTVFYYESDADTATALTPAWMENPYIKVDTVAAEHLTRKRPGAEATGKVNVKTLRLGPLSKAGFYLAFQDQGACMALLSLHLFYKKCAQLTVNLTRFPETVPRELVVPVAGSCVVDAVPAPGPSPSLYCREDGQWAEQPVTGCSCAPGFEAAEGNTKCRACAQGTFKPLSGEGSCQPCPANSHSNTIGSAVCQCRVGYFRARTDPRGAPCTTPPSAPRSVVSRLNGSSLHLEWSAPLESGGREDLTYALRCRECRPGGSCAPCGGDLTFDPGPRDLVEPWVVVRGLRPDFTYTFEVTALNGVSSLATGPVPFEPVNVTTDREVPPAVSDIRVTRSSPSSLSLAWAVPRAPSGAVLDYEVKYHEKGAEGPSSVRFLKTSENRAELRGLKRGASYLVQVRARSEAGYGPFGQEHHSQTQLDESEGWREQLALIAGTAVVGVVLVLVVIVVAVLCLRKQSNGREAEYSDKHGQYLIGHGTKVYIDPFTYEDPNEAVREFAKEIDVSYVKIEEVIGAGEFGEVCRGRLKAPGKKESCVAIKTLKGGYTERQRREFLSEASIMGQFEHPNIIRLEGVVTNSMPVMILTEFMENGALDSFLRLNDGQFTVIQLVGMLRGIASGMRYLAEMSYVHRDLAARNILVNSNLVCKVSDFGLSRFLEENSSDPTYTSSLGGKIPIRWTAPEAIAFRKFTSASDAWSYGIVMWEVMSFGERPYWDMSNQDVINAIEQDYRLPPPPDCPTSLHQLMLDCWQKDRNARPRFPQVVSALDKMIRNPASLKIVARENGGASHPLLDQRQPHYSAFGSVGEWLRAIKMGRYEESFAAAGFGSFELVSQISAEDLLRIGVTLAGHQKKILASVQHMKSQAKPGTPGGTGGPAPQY
As to the kind of experiment: Kinase inhibition assay (33P transfer), EPHB4. The conditions noted are these: read-out: EPHB4-1.

Each structure is given as a SMILES string. A value given as a limit tells only on which side of the number the result lay.

Experimental findings from US7074789B2, “Kinase inhibitors” (Amgen Inc., priority 1999, dated 2006) are described below.

T6 sequence (Q02763 23-1124, species assumed): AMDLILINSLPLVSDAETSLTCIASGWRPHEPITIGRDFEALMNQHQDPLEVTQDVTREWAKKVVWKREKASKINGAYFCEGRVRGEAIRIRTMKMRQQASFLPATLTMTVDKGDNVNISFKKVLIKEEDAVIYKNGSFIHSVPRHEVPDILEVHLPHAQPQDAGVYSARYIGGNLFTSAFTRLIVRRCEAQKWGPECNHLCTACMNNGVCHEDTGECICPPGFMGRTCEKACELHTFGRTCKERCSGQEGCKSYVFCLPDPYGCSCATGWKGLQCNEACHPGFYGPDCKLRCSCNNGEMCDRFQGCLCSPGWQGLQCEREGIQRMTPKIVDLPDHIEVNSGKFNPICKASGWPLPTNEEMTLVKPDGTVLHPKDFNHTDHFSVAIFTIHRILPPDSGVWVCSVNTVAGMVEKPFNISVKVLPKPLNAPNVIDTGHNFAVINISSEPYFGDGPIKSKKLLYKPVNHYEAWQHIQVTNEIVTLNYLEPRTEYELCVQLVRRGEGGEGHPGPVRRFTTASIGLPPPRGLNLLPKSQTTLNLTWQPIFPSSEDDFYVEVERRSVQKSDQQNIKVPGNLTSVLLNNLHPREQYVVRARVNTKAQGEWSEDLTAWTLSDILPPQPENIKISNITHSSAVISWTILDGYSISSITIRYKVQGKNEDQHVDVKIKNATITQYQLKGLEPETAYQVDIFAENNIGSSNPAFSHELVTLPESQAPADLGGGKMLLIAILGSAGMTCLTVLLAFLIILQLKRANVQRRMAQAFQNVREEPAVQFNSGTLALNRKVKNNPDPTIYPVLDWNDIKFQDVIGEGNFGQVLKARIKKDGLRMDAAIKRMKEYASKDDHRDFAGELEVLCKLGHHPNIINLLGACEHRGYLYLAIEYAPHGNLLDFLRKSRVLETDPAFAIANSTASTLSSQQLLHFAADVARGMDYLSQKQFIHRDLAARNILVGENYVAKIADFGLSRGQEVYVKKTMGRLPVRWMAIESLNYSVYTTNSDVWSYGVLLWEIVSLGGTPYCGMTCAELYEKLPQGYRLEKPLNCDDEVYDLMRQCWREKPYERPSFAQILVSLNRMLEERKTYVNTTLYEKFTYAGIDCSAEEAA
T1 sequence (P06239 whole entry, species assumed, the tested form may be a part): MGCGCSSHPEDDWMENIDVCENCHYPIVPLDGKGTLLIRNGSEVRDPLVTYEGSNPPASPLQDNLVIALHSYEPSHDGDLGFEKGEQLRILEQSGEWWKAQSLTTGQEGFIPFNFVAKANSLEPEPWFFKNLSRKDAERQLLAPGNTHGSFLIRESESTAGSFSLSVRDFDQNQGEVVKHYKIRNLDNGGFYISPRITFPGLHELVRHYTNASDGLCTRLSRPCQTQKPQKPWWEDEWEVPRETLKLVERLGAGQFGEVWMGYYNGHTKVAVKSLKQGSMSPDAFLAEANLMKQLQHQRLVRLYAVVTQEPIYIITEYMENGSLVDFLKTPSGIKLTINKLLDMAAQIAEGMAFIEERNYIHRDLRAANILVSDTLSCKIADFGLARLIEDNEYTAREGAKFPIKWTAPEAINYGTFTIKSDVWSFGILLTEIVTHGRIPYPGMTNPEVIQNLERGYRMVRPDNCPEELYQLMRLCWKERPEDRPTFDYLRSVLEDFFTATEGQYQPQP

As for `c1ccc(-c2ncnc(Nc3ccc(OCCCN4CCOCC4)cc3)n2)cc1` [Compound 154], the IC50 is greater than 11.5 µM on Lck; greater than 11.5 µM on Zap-70; greater than 11.5 µM on Itk; greater than 11.5 µM on EGFR; 1.02 to 6.13 µM on Kdr; greater than 11.5 µM at Tek. Besides, the IC50 is greater than 11.5 µM on c-Met, greater than 11.5 µM at AKT, 1.02 to 6.13 µM against IGFR-1 and 8.94 to 11.5 µM on EPHB4.
As for `COc1ccc(Nc2ncnc(Nc3ccc(F)c(Cl)c3)n2)cc1OC` [Compound 113], the IC50 on Lck was greater than 12 µM; on Zap-70, greater than 12 µM; on Itk it was greater than 12 µM; at EGFR, 1.06 to 6.39 µM; at Kdr it was greater than 12 µM; on Tek it was greater than 12 µM. The IC50 was greater than 12 µM on c-Met, greater than 12 µM at AKT, less than 1.06 µM against IGFR-1 and 6.39 to 9.31 µM at EPHB4.
For the molecule `COc1cc(Nc2ncnc(N3CCN(C)CC3)n2)cc(OC)c1OC` [Compound 212], the IC50 on Lck, at Zap-70, on Itk, on EGFR, on Kdr and at Tek was greater than 12.5 µM in each case. Further, the IC50 at c-Met, on AKT, against IGFR-1 and on EPHB4 was greater than 12.5 µM throughout.
Turning to `COc1cc(OC)cc(-c2nnc(Nc3ncnc(Nc4cc(OC)c(OC)c(OC)c4)n3)[nH]2)c1` [Compound 312], the IC50 at Lck, on Zap-70, on Itk, at EGFR, on Kdr and at Tek was greater than 9.37 µM throughout. Further, the IC50 on c-Met, on AKT, on IGFR-1 and at EPHB4 was greater than 9.37 µM in each case.
On to `COc1cc(Nc2ncnc(-c3cc4ccccc4s3)n2)cc(OC)c1OC` [Compound 218], for which the IC50 at Lck, on Zap-70, at Itk, on EGFR, on Kdr and on Tek was greater than 11.4 µM in each case. Moreover, the IC50 on c-Met, on AKT, against IGFR-1 and on EPHB4 was greater than 11.4 µM in each case.
`Oc1ccc(Nc2ncnc(Nc3ccc(OCc4ccccc4)cc3)n2)cc1` [Compound 158]: the IC50 on Lck was 9.08 to 11.7 µM; at Zap-70, 1.04 to 6.23 µM; at Itk it was greater than 11.7 µM; at EGFR it was 1.04 to 6.23 µM; at Kdr, 1.04 to 6.23 µM; on Tek, 6.23 to 9.08 µM. The IC50 at c-Met lay within 1.04 to 6.23 µM; on AKT, 1.04 to 6.23 µM; against IGFR-1 it was 6.23 to 9.08 µM; at EPHB4, 1.04 to 6.23 µM.
Take `COc1cc(Nc2ncnc(-c3cccc(Cl)c3)n2)cc(OC)c1OC` [Compound 220]: the IC50 at Lck, at Zap-70, on Itk, on EGFR, on Kdr and at Tek was greater than 12.1 µM in each case. The IC50 at c-Met, on AKT, on IGFR-1 and on EPHB4 was greater than 12.1 µM each time.
Consider `COc1cc(Nc2ncnc(Nc3nc4ccc(F)cc4s3)n2)cc(OC)c1OC` [Compound 317], for which the IC50 was 0.934 to 5.6 µM at Lck; greater than 10.5 µM on Zap-70; greater than 10.5 µM at Itk; greater than 10.5 µM on EGFR; 0.934 to 5.6 µM on Kdr; 8.17 to 10.5 µM at Tek. For the same molecule, the IC50 was 0.934 to 5.6 µM on c-Met, greater than 10.5 µM on AKT, 0.934 to 5.6 µM on IGFR-1 and 5.6 to 8.17 µM at EPHB4.
Turning to `COCCOc1ccc(Nc2ncnc(Nc3ccc(C)c(F)c3)n2)cc1OCCOC` [Compound 322], the IC50 at Lck is greater than 10.1 µM; on Zap-70, greater than 10.1 µM; on Itk it was greater than 10.1 µM; at EGFR, greater than 10.1 µM; on Kdr, 0.902 to 5.41 µM; on Tek, greater than 10.1 µM. The IC50 at c-Met, at AKT, on IGFR-1 and at EPHB4 was greater than 10.1 µM each time.
For `COCCOc1ccc(Nc2ncnc(-c3ccccc3)n2)cc1` [Compound 155], the IC50 at Lck, on Zap-70, at Itk, on EGFR, on Kdr and at Tek was greater than 14 µM each time. Moreover, the IC50 at c-Met, on AKT, against IGFR-1 and at EPHB4 was greater than 14 µM in each case.
As for `COc1ccc(Nc2ncnc(Nc3ccc(Br)cc3F)n2)cc1OC` [Compound 117], the IC50 at Lck is 5.71 to 8.33 µM; on Zap-70 it was 8.33 to 10.7 µM; at Itk, greater than 10.7 µM; at EGFR, 5.71 to 8.33 µM; at Kdr, 0.952 to 5.71 µM; on Tek, greater than 10.7 µM. The IC50 was 8.33 to 10.7 µM on c-Met, 5.71 to 8.33 µM on AKT, greater than 10.7 µM at IGFR-1 and 8.33 to 10.7 µM at EPHB4.
